The results in this text go back to PubChem BioAssay AID248 (DTP/NCI, 2004).

Toxic doses and inconclusive results are not listed.

The subject of this test is L1210 leukemia ip in BDF1 mice, survival T/C. The experiment in a line: NCI In Vivo Anticancer Drug Screen. Data for tumor model L1210 Leukemia (intraperitoneal) in B6D2F1 (BDF1) mice. The settings on record: endpoint: mean survival time, higher = longer survival. Put shortly: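 Transplantable tumor model; survival measured in treated vs vehicle control mice. Value = treated/control.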

Setting [1] is: dose: 100.0 mg/kg/injection, schedule: Q01DX001 (ip), vehicle: saline.
[2] abbreviates: dose: 10.0 mg/kg/injection, schedule: Q01DX001 (ip), vehicle: saline.
The mark [3] stands for this setting: dose: 20.0 mg/kg/injection, schedule: Q01DX001 (ip), vehicle: saline.
Where [4] appears, read: dose: 40.0 mg/kg/injection, schedule: Q01DX001 (ip), vehicle: saline.
Where [5] appears, read: dose: 100.0 mg/kg/injection, schedule: Q04DX002 (ip), vehicle: saline.
[6] abbreviates: dose: 200.0 mg/kg/injection, schedule: Q04DX002 (ip), vehicle: saline.
The mark [7] stands for this setting: dose: 400.0 mg/kg/injection, schedule: Q04DX002 (ip), vehicle: saline.

In the case of `O=C(c1cccs1)C1Cc2ccccc2C1=O` (stereo unspecified), the T/C was 98 % of control (dose: 100.0 mg/kg/injection, schedule: Q01DX009 (ip), vehicle: saline sonified); 94 % of control (dose: 100.0 mg/kg/injection, schedule: Q04DX003 (ip), vehicle: saline sonified); 95 % of control (dose: 200.0 mg/kg/injection, schedule: Q01DX009 (ip), vehicle: saline sonified); 92 % of control (dose: 200.0 mg/kg/injection, schedule: Q04DX003 (ip), vehicle: saline sonified); 101 % of control (dose: 400.0 mg/kg/injection, schedule: Q01DX009 (ip), vehicle: saline sonified); 94 % of control (dose: 400.0 mg/kg/injection, schedule: Q04DX003 (ip), vehicle: saline sonified).
Take `O=C1CC(c2ccccn2)=NN1c1ccccc1`: the T/C is, setting by setting: (dose: 100.0 mg/kg/injection, schedule: Q04DX003 (ip), vehicle: saline with Tween-80) 98 % of control; (dose: 200.0 mg/kg/injection, schedule: Q04DX003 (ip), vehicle: saline with Tween-80) 94 % of control; (dose: 400.0 mg/kg/injection, schedule: Q04DX003 (ip), vehicle: saline with Tween-80) 91 % of control.
Turning to `CCCCN(C)N=Nc1ccccc1C(=O)OC`, the T/C is 107 % of control (dose: 100.0 mg/kg/injection, schedule: Q01DX001 (ip), vehicle: carboxymethylcellulose (CMC)) and 117 % of control (dose: 200.0 mg/kg/injection, schedule: Q01DX001 (ip), vehicle: carboxymethylcellulose (CMC)).
Turning to `Cc1ccc(SCc2c(COc3ccc(Cl)cc3)sc3ccc(Cl)cc23)cc1`, the T/C by setting is: (dose: 100.0 mg/kg/injection, schedule: Q01DX009 (ip), vehicle: saline with Tween-80) 102 % of control; (dose: 200.0 mg/kg/injection, schedule: Q01DX009 (ip), vehicle: saline with Tween-80) 119 % of control; (dose: 400.0 mg/kg/injection, schedule: Q01DX009 (ip), vehicle: saline with Tween-80) 97 % of control.
In the case of `O=C1c2ccccc2-c2c1nc1ccccc1[n+]2[O-]`, the T/C runs as follows: (dose: 75.0 mg/kg/injection, schedule: Q01DX001 (ip), vehicle: saline sonified) 89 % of control; (dose: 150.0 mg/kg/injection, schedule: Q01DX001 (ip), vehicle: saline sonified) 92 % of control; (dose: 300.0 mg/kg/injection, schedule: Q01DX001 (ip), vehicle: saline sonified) 92 % of control.
Regarding `CCSC(C)(C)C(C)(C#N)NNC(C)(C#N)C(C)(C)SCC` (stereo unspecified), the T/C under setting [1] was 101 % of control; the T/C (dose: 200.0 mg/kg/injection, schedule: Q01DX001 (ip), vehicle: saline) is 95 % of control; the T/C (dose: 400.0 mg/kg/injection, schedule: Q01DX001 (ip), vehicle: saline) was 93 % of control.
As for `COc1cc(/C=C/c2ccnc3ccccc23)cc(OC)c1OC`, the T/C was 96 % of control (dose: 5.0 mg/kg/injection, schedule: Q01DX001 (ip), vehicle: saline); 102 % of control under setting [2]; 102 % of control under setting [3]; 91 % of control under setting [4].
For the compound `CCCCCCCCCCCCCCC1=NCCN1`, the T/C is 98 % of control (dose: 5.0 mg/kg/injection, schedule: Q01DX009 (ip), vehicle: saline); 94 % of control under setting [2]; 104 % of control (dose: 10.0 mg/kg/injection, schedule: Q01DX009 (ip), vehicle: saline); 92 % of control (dose: 10.0 mg/kg/injection, schedule: Q04DX003 (ip), vehicle: saline); 103 % of control under setting [3]; 106 % of control (dose: 20.0 mg/kg/injection, schedule: Q01DX009 (ip), vehicle: saline). Besides, the T/C was 101 % of control (dose: 20.0 mg/kg/injection, schedule: Q04DX003 (ip), vehicle: saline); 98 % of control under setting [4]; 92 % of control (dose: 40.0 mg/kg/injection, schedule: Q04DX003 (ip), vehicle: saline).
With `COc1cc2c(c(OC)c1OC)-c1ccc(OC)c(=O)cc1C(=O)CC2`, the T/C (dose: 50.0 mg/kg/injection, schedule: Q01DX001 (ip), vehicle: carboxymethylcellulose (CMC)) is 122 % of control.
For `CN(Cc1cnc2cc(N)nc(N)c2n1)c1ccc(C(=O)O)cc1`, the T/C reads like this: (dose: 25.0 mg/kg/injection, schedule: Q01DX009 (ip), vehicle: other) 108 % of control; (dose: 50.0 mg/kg/injection, schedule: Q01DX009 (ip), vehicle: other) 106 % of control; (dose: 75.0 mg/kg/injection, schedule: Q01DX001 (ip), vehicle: other) 98 % of control; (dose: 100.0 mg/kg/injection, schedule: Q01DX009 (ip), vehicle: other) 101 % of control; (dose: 150.0 mg/kg/injection, schedule: Q01DX001 (ip), vehicle: other) 102 % of control; (dose: 300.0 mg/kg/injection, schedule: Q01DX001 (ip), vehicle: other) 105 % of control.
`C/C=C\C(=O)N(CC)C(=NCC)c1ccc(NC(=O)c2ccc(C(=O)Nc3ccc(C(=NCC)N(CC)C(=O)/C=C/C)cc3)cc2)cc1`: the T/C is 104 % of control (dose: 0.56 mg/kg/injection, schedule: Q01DX015 (ip), vehicle: methylcellulose (MC)); 112 % of control (dose: 1.12 mg/kg/injection, schedule: Q01DX015 (ip), vehicle: methylcellulose (MC)); 116 % of control (dose: 2.25 mg/kg/injection, schedule: Q01DX015 (ip), vehicle: methylcellulose (MC)); 172 % of control (dose: 4.5 mg/kg/injection, schedule: Q01DX015 (ip), vehicle: methylcellulose (MC)); 164 % of control (dose: 6.25 mg/kg/injection, schedule: Q01DX015 (ip), vehicle: methylcellulose (MC)).
Take `N#C/C=C/C1CCCCC1`: the T/C is 109 % of control (dose: 25.0 mg/kg/injection, schedule: Q04DX003 (ip), vehicle: saline); 107 % of control (dose: 50.0 mg/kg/injection, schedule: Q04DX003 (ip), vehicle: saline); 95 % of control under setting [1]; 105 % of control (dose: 100.0 mg/kg/injection, schedule: Q04DX003 (ip), vehicle: saline).
In the case of `Cc1nc(Cl)c(CO)c(CO)c1O`, the T/C is 95 % of control (dose: 12.5 mg/kg/injection, schedule: Q01DX009 (ip), vehicle: Klucel (hydroxypropylcellulose) (HPC)); 98 % of control (dose: 25.0 mg/kg/injection, schedule: Q01DX009 (ip), vehicle: Klucel (hydroxypropylcellulose) (HPC)); 94 % of control (dose: 25.0 mg/kg/injection, schedule: Q04DX003 (ip), vehicle: Klucel (hydroxypropylcellulose) (HPC)); 92 % of control (dose: 50.0 mg/kg/injection, schedule: Q01DX009 (ip), vehicle: Klucel (hydroxypropylcellulose) (HPC)); 90 % of control (dose: 50.0 mg/kg/injection, schedule: Q04DX003 (ip), vehicle: Klucel (hydroxypropylcellulose) (HPC)); 106 % of control (dose: 100.0 mg/kg/injection, schedule: Q04DX003 (ip), vehicle: Klucel (hydroxypropylcellulose) (HPC)).
Consider `NC(N)=N/N=C/c1ccccc1` (tested in a mixture with another compound), for which the T/C was 93 % of control (dose: 12.5 mg/kg/injection, schedule: Q04DX003 (ip), vehicle: acetone); 96 % of control (dose: 25.0 mg/kg/injection, schedule: Q04DX003 (ip), vehicle: acetone); 91 % of control (dose: 50.0 mg/kg/injection, schedule: Q04DX003 (ip), vehicle: acetone).
With `COC(=O)c1ccc(-c2c3ccc(=O)cc-3oc3cc(O)ccc23)c(C(=O)OC)c1`, the T/C was 102 % of control (dose: 50.0 mg/kg/injection, schedule: Q04DX003 (ip), vehicle: gum acacia); 98 % of control (dose: 100.0 mg/kg/injection, schedule: Q04DX003 (ip), vehicle: gum acacia); 102 % of control (dose: 200.0 mg/kg/injection, schedule: Q04DX003 (ip), vehicle: gum acacia); 95 % of control (dose: 400.0 mg/kg/injection, schedule: Q04DX003 (ip), vehicle: gum acacia).
With `O=S(=O)(/N=c1/ccc(NS(=O)(=O)c2ccccc2)cn1O)c1ccccc1`, the T/C by setting is: (dose: 50.0 mg/kg/injection, schedule: Q01DX001 (ip), vehicle: Klucel (hydroxypropylcellulose) (HPC)) 96 % of control; (dose: 100.0 mg/kg/injection, schedule: Q01DX001 (ip), vehicle: Klucel (hydroxypropylcellulose) (HPC)) 102 % of control; (dose: 200.0 mg/kg/injection, schedule: Q01DX001 (ip), vehicle: Klucel (hydroxypropylcellulose) (HPC)) 98 % of control.
As to `CN(C)CCOC(=O)c1ccc(C=O)cc1`, the T/C under setting [5] is 105 % of control, the T/C under setting [6] is 110 % of control and the T/C under setting [7] was 90 % of control.
As to `O=C(CCC(=O)NO)NO`, the T/C under setting [5] was 110 % of control, the T/C under setting [6] was 103 % of control and the T/C under setting [7] was 97 % of control.
